Test results taken from paper PMC3973022, “Quercetin and quercetin 3-O-glycosides from Bauhinia longifolia (Bong.) Steud. show anti-Mayaro virus activity” (Parasites & Vectors, 2014).
Converted amounts (≈) assume the structure as drawn. “Also recorded” adds a separate entry of the source.

Assays:
[1] = Cytotoxicity by dye-uptake (neutral red) assay; details: African green monkey
Experimental: (§1) Vero cells (African green monkey kidney, ATCC CCL-81) were grown at 37°C with 5% CO2, in Dulbecco’s modified Eagle’s medium (DMEM) (Life Technologies, USA) supplemented with 5% fetal bovine serum (Cultilab, BRA), 50 IU/mL of penicillin, and 50 μg/mL of streptomycin (Sigma-Aldrich, USA). Mayaro viruses (ATCC VR-66, lineage TR 4675) were propagated in Vero cells and viral stocks in 10% glycerol were kept at -70°C. Virus titer was determined by plaque assay (described under ‘Antiviral activity assay’).
Briefly, confluent cultures of Vero cells in 96-well microplates were treated with culture media containing different concentrations of the substances being tested. After 24 hours, the culture medium was replaced by a solution of 50 μg/mL neutral red and the cells were incubated for 3 hours, at 37°C, 5% CO2. Cells were then fixed with 20% formaldehyde and extracted with 50% methanol and 1% acetic acid, before measurement of absorbance at λ490 nm, using a spectrophotometer, to detect neutral red incorporation by living cells.

Mayaro virus (MAYV) = assay: microbe, parasite or virus in culture; assay type: cell-based; details: for IC90: Vero, 24 h, read-out: IC90 (90% inhibitory concentration of viral replication); for IC50: read-out: IC50 (50% inhibitory concentration of viral replication), MAYV MOI 0.1 in Vero cells, 24 h treatment; for anti-MAYV activity (in words): concentrations tested 0–100 μg/ml
Experimental: as §1
Antiviral activity was evaluated using a virus yield inhibition assay. Briefly, confluent cell monolayers grown in 24-well plates were infected with MAYV (multiplicity of infection = 0.1) for 1 hour, then rinsed with PBS and treated for 24 hours (at 37°C and 5% CO2) with different concentrations (0–100 μg/ml) of flavonoids or extracts diluted in culture medium. After treatment, culture supernatants were recovered and used for titration of extracellular infectious virus particles. For virus titration, confluent cell monolayers in 24-well plates were infected with serial dilutions of recovered supernatants for 1 hour at 37°C, 5% CO2. After inoculum removal, cells were rinsed with PBS and the monolayer was incubated with fresh medium with 2% carboxymethylcellulose (Sigma-Aldrich, USA) for 48 hours at 37°C, 5% CO2. Finally, cells were fixed with 20% formaldehyde and stained with 0.5% crystal violet in 20% ethanol, and viral plaques were counted. […] P-values < 0.05 were considered statistically significant.

Row | SMILES | CC50 at 24 h [1] | IC90 (Mayaro virus (MAYV); Mayaro virus) | IC50 (Mayaro virus (MAYV); Mayaro virus) | anti-MAYV activity (in words) (Mayaro virus (MAYV); Vero cells) | SI (Selectivity Index = CC50/IC50) (Mayaro virus (MAYV); CC50 in Vero cells / IC50 against MAYV) | inhibition at 25 µg/mL (Mayaro virus (MAYV); Mayaro virus, at 25 μg/mL, Vero cells, read-out: inhibition of MAYV replication/production)
1 | O=c1c(OC2OCC(O)C(O)C2O)c(-c2ccc(O)c(O)c2)oc2cc(O)cc(O)c12 (stereo not drawn) [Guaijaverin, quercetin-3-O-α-arabinoside] | 795 ± 54 µg/mL (≈ 1830 µM) | > 100 µg/mL | > 100 µg/mL | did not show significant antiviral activity; also recorded: absence of anti-MAYV activity | – | –
2 | O=c1c(O)c(-c2ccc(O)c(O)c2)oc2cc(O)cc(O)c12 [Quercetin, quercetin] | 941 ± 123 µg/mL (≈ 3110 µM) | 19 ± 0.7 µg/mL (≈ 62.9 µM) | 10 ± 0.7 µg/mL (≈ 33.1 µM) | showed significant anti-MAYV activity | 94 | > 90%
3 | C[C@@H]1O[C@@H](Oc2c(-c3ccc(O)c(O)c3)oc3cc(O)cc(O)c3c2=O)[C@H](O)[C@H](O)[C@H]1O [Quercitrin, quercetin-3-O-α-rhamnoside] | 411 ± 46 µg/mL (≈ 917 µM) | > 100 µg/mL | > 100 µg/mL | did not show significant antiviral activity; also recorded: absence of anti-MAYV activity | – | –
4 | NC(=O)c1ncn([C@@H]2O[C@H](CO)[C@@H](O)[C@H]2O)n1 [Ribavirin, reference compound] | 523 ± 42 µg/mL (≈ 2140 µM) | > 100 µg/mL | 62 ± 4 µg/mL (≈ 254 µM) | – | – | –
